Assay results: patent publication US11109593B2, “Isoxazolin-5-one derivative and herbicide containing same as active ingredient” (HOKKO CHEMICAL INDUSTRY CO., LTD., priority 2017, dated 2021)

Tests used:
Assay type in all cases: in vivo
Scirpus juncoides [1] = test: Test Example 1: herbicidal effect test by treatment of rice paddy soil (immediately after seeding); settings: 120 g/10a active ingredient, dry weight vs untreated area, 14 days after treatment
Outline: (§1)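 Flooded paddy pot test in a glass greenhouse: emulsion diluted in water, dropped at 120 g a.i. per 10 ares just after sowing, water depth kept about 3 cm. Dry-weight reduction relative to untreated plants is scored at 14 days.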

[2] = system: broad leaf weeds (Lindernia pyxidaria and Monochoria vaginalis); test: as above; settings: 120 g/10a active ingredient, dry weight vs untreated area, 14 days after treatment
Outline: as §1

Echinochloa crus-galli [3] = test: as above; settings: 120 g/10a active ingredient, dry weight vs untreated area, 14 days after treatment
Outline: as §1

Scirpus juncoides [4] = test: Test Example 2: herbicidal effect test by treatment during growing period in paddy rice cultivation (seven days after seeding); settings: 120 g/10a active ingredient, assessed 14 days after treatment, dry weight vs untreated area
Outline: (§2)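 Emulsion formulations, diluted in water, applied dropwise to flooded pots (about 3 cm water) 7 days post-seeding at 120 g a.i./10 ares. Weeds sown 30 seeds each, 0–1 cm deep in puddled paddy soil; greenhouse. Readout: % reduction in plant dry weight vs untreated, day 14, duplicates.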

[5] = system: broad leaf weeds (Lindernia pyxidaria and Monochoria vaginalis); test: as above; settings: 120 g/10a active ingredient, assessed 14 days after treatment, dry weight vs untreated area
Outline: as §2

Echinochloa crus-galli [6] = test: as above; settings: 120 g/10a active ingredient, assessed 14 days after treatment, dry weight vs untreated area
Outline: as §2

Chenopodium album [7] = test: Test Example 4: herbicidal effect test by treatment of leave and stem in dry field farming (seven days after seeding); settings: 120 g/10a active ingredient; emulsion sprayed seven days after seeding; evaluated 14 days after treatment
Method: (§3) This test was conducted in a double system per one agent solution concentration area, and the herbicidal rates (%) were determined by the following equation (Math. 1) on 14 days after the treatment with the agents. Herbicidal Rate (%)={1-(Average Dry Weight (g) of Plant of Treated Area)/(Average Dry Weight (g) of Plant of Untreated Area)}×100 [Math. 1]
(§4) Herbicidal Effect Test by Treatment of Leave and Stem in Dry Field Farming
(§5) Pots with a size of 36 cm^2 were filled with a dry field farming soil (alluvium). The soil of the top layer of 1 cm and seeds of weeds, namely southern crabgrass, Echinochloa crus-galli, Chenopodium album and Amaranthus viridis, 20 seeds each, were evenly mixed, and the top layer was gently pressed. Emulsions prepared using the compounds in Table 6 below according to Formulation Example 5 were diluted with water seven days after seeding, and the water-diluted agent solutions were sprayed to the soil surfaces at a ratio of 100 liters per 10 ares. The converted amount of the applied active ingredient corresponded to 120 g per 10 ares. The herbicidal effects were evaluated by the same standard as that in Test Example 1 on 14 days after the treatment with the agents. […] The compound numbers in Table 6 are the same as those in Table 1 and Table 2 above.

Amaranthus viridis [8] = test: as above; settings: 120 g/10a active ingredient; emulsion sprayed seven days after seeding; evaluated 14 days after treatment
Method: as §3, §4, §5

southern crabgrass [9] = test: as above; settings: 120 g/10a active ingredient; emulsion sprayed seven days after seeding; evaluated 14 days after treatment
Method: as §3, §4, §5

Echinochloa crus-galli [10] = test: as above; settings: 120 g/10a active ingredient; emulsion sprayed seven days after seeding; evaluated 14 days after treatment
Method: as §3, §4, §5

Chenopodium album [11] = test: Test Example 3: herbicidal effect test by treatment of dry field farming soil (one day after seeding); settings: 120 g/10a active ingredient, evaluated 14 days after treatment
Method: as §3
(§6) Herbicidal Effect Test by Treatment of Dry Field Farming Soil
as §5, with “Table 5” for “Table 6”, “water one day” for “water seven days”

Amaranthus viridis [12] = test: as above; settings: 120 g/10a active ingredient, evaluated 14 days after treatment
Method: as §3, §6
as §5, with “Table 5” for “Table 6”, “water one day” for “water seven days”

southern crabgrass [13] = test: as above; settings: 120 g/10a active ingredient, evaluated 14 days after treatment
Method: as §3, §6
as §5, with “Table 5” for “Table 6”, “water one day” for “water seven days”

Echinochloa crus-galli [14] = test: as above; settings: 120 g/10a active ingredient, evaluated 14 days after treatment
Method: as §3, §6
as §5, with “Table 5” for “Table 6”, “water one day” for “water seven days”

Row | Compound | Herbicidal rate (%) Scirpus juncoides (Scirpus juncoides [1]) [%] | Herbicidal rate (%) Lindernia pyxidaria [2] [%] | Herbicidal rate (%) Monochoria vaginalis [2] [%] | Herbicidal rate (%) Echinochloa crus-galli (Echinochloa crus-galli [3]) [%] | Herbicidal rate (%) Scirpus juncoides (Scirpus juncoides [4]) [%] | Herbicidal rate (%) Lindernia pyxidaria [5] [%] | Herbicidal rate (%) Monochoria vaginalis [5] [%] | Herbicidal rate (%) Echinochloa crus-galli (Echinochloa crus-galli [6]) [%] | herbicidal effect (herbicidal rate), Chenopodium album (Chenopodium album [7]) [%] | herbicidal effect (herbicidal rate), Amaranthus viridis (Amaranthus viridis [8]) [%] | herbicidal effect (herbicidal rate), southern crabgrass (southern crabgrass [9]) [%] | herbicidal effect (herbicidal rate), Echinochloa crus-galli (Echinochloa crus-galli [10]) [%] | herbicidal rate, Chenopodium album (Chenopodium album [11]) [%] | herbicidal rate, Amaranthus viridis (Amaranthus viridis [12]) [%] | herbicidal rate, southern crabgrass (southern crabgrass [13]) [%] | herbicidal rate, Echinochloa crus-galli (Echinochloa crus-galli [14]) [%]
1 | Cc1c(Cc2ccccc2N(S(=O)(=O)C(F)(F)F)S(=O)(=O)C(F)(F)F)c(=O)on1C(C)c1ccccc1 (stereo not drawn) [Compound 1-1030] | 90 | 100 | 100 | 90 | 90 | 90 | 90 | 90 | 40 | 40 | 40 | 90 |  |  |  | 
2 | Cc1c(Cc2cc(F)ccc2N(S(=O)(=O)C(F)(F)F)S(=O)(=O)C(F)(F)F)c(=O)on1Cc1ccccc1 [Compound 1-32] | 90 | 80 | 90 | 80 | 90 | 80 | 90 | 90 | 60 | 40 | 40 | 0 |  |  |  | 
3 | CCCOC(=O)N(c1ccccc1Cc1c(C)n(C(C)CC)oc1=O)S(=O)(=O)C(F)(F)F (stereo not drawn) [Compound 1-632] | 90 | 90 | 90 | 90 | 90 | 90 | 90 | 90 | 40 | 40 | 90 | 90 |  |  |  | 
4 | Cc1c(Cc2ccccc2NS(=O)(=O)C(F)(F)F)c(=O)on1CC(F)(F)F [Compound 1-134] | 80 | 60 | 80 | 80 | 80 | 40 | 80 | 80 | 40 | 50 | 60 | 90 |  |  |  | 
5 | CC(C)Cn1oc(=O)c(Cc2ccccc2NS(=O)(=O)C(F)(F)F)c1C(F)(F)F [Compound 1-81] | 90 | 80 | 80 | 90 | 90 | 60 | 80 | 80 | 0 | 0 | 80 | 90 |  |  |  | 
6 | CSCCn1oc(=O)c(Cc2ccccc2N(S(=O)(=O)C(F)(F)F)S(=O)(=O)C(F)(F)F)c1C [Compound 1-1002] | 100 | 100 | 100 | 100 | 80 | 60 | 80 | 90 | 70 | 50 | 60 | 90 |  |  |  | 
7 | Cc1c(Cc2ccccc2N(S(=O)(=O)C(F)(F)F)S(=O)(=O)C(F)(F)F)c(=O)on1CC(C)c1ccccc1 (stereo not drawn) [Compound 1-1046] | 90 | 70 | 80 | 100 | 90 | 60 | 90 | 90 | 0 | 90 | 60 | 90 |  |  |  | 
8 | Cc1c(Cc2ccccc2N(S(=O)(=O)C(F)(F)F)S(=O)(=O)C(F)(F)F)c(=O)on1CCCl [Compound 1-983] | 90 | 90 | 90 | 70 | 80 | 80 | 80 | 40 | 0 | 40 | 40 | 60 |  |  |  | 
9 | Cc1c(Cc2ccccc2N(S(=O)(=O)C(F)(F)F)S(=O)(=O)C(F)(F)F)c(=O)on1Cc1ccccc1 [Compound 1-1011] | 90 | 90 | 90 | 90 | 90 | 90 | 90 | 40 |  |  |  |  | 40 | 40 | 80 | 90
10 | Cc1c(Cc2ccccc2NS(=O)(=O)C(F)(F)F)c(=O)on1CCCc1ccccc1 [Compound 1-221] | 80 | 70 | 60 | 90 | 40 | 40 | 40 | 60 |  |  |  |  | 40 | 50 | 50 | 70
11 | Cc1c(Cc2ccccc2NS(=O)(=O)C(F)(F)F)c(=O)on1CC1(C)COC1 [Compound 1-229] | 90 | 80 | 100 | 70 | 90 | 60 | 90 | 70 |  |  |  |  | 40 | 60 | 60 | 40
